Reference: US20250250232A1, “AZETIDINE DERIVATIVES AND USE THEREOF AS DIPEPTIDYL PEPTIDASE 1 INHIBITORS” (CHIESI FARMACEUTICI S.P.A., priority 2022, published 2025)
Several values for one entry are separate records, joined by “and”; a condition that tells them apart may be missing. Equal entries are not always repeated.

molecular target: human DPP1 enzyme (Homo sapiens (Human), UniProt P53634); experiment: Activity on human recombinant DPP1 isolated enzyme assay (H-Gly-Arg-AMC cleavage, fluorescence); format: biochemical; settings: 0.35 nM human DPP1, 300 μM H-Gly-Arg-AMC, 30 min pre-incubation at 25° C., pH 5.0
Sequence (P53634 231-394): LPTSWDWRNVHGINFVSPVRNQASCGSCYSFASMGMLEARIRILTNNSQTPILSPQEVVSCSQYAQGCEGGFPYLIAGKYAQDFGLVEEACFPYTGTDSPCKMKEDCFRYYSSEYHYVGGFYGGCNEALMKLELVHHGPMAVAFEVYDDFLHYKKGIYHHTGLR
Sequence (P53634 25-134): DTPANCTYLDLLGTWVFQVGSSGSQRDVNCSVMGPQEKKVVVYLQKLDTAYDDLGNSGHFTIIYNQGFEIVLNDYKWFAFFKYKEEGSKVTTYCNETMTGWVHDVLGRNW
Sequence (P53634 395-463): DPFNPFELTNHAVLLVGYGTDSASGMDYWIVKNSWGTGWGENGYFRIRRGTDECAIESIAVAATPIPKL
Description: Human DPP1 enzyme activity was determined by measuring release of the fluorophore aminomethyl coumarin (AMC) following enzymatic cleavage of the dipeptide substrate H-Gly-Arg-AMC. Assays were performed in black 384 well plates in 25 mM piperazine buffer, pH 5.0, containing 50 mM NaCl, 0.01% (v/v) Triton X100, 5 mM DTT with 0.35 nM human DPP1 enzyme, 300 μM H-Gly-Arg-AMC substrate (˜Km concentration) and test compounds at 0.51-10000 nM concentration range. Human DPP1 was pre-incubated with test compounds for 30 minutes at 25° C. prior to substrate incubation for a further 40 minutes at 25° C. Enzyme activity was determined by measuring fluorescence of the AMC product at excitation and emission wavelengths of 380 nm and 460 nm using a BMG LABTECH PHERA star plate reader. Test compound potencies are reported in Table 15 as pIC50 values generated from 4-parameter sigmoidal curve fitting of the measured concentration-inhibition responses.

SMILES | h DPP1 pIC50
CN1C(=O)Cc2ccc(-c3ccc(C[C@@H](C#N)NC(=O)C4(CF)CNC4)c(F)c3)cc21 [Example 48, (S)-N-(1-cyano-2-(2-fluoro-4-(1-methyl-2-oxoindolin-6-yl)phenyl)ethyl)-3-(fluoromethyl)azetidine-3-carboxamide] | ++++ (h DPP1 pIC50 higher than 8)
COC1(C(=O)N[C@H](C#N)Cc2ccc(-c3ccc4oc(=O)n(C)c4c3)cc2F)CN(C)C1 [Example 37, (S)-N-(1-cyano-2-(2-fluoro-4-(3-methyl-2-oxo-2,3-dihydrobenzo[d]oxazol-5-yl)phenyl)ethyl)-3-methoxy-1-methylazetidine-3-carboxamide] | ++++ (h DPP1 pIC50 higher than 8)
N#C[C@H](Cc1ccc(-c2ccc3c(c2)C2(CCN(C4COC4)CC2)OC3)cc1F)NC(=O)C1(C(F)F)CNC1 [Example 15, (S)-N-(1-cyano-2-(2-fluoro-4-(1′-(oxetan-3-yl)-3H-spiro[isobenzofuran-1,4′-piperidin]-6-yl)phenyl)ethyl)-3-(difluoromethyl)azetidine-3-carboxamide] | ++++ (h DPP1 pIC50 higher than 8)
COC1(C(=O)N[C@H](C#N)Cc2ccc(-c3ccc4c(c3)C3(CCN(C5COC5)CC3)OC4)cc2F)CN(C)C1 [Example 47, (S)-N-(1-cyano-2-(2-fluoro-4-(1′-(oxetan-3-yl)-3H-spiro[isobenzofuran-1,4′-piperidin]-6-yl)phenyl)ethyl)-3-methoxy-1-methylazetidine-3-carboxamide] | ++++ (h DPP1 pIC50 higher than 8)
COC1(C(=O)N[C@H](C#N)Cc2ccc(-c3ccc4oc(=O)n(C)c4c3)cc2F)CNC1 [Example 36, (S)-N-(1-cyano-2-(2-fluoro-4-(3-methyl-2-oxo-2,3-dihydrobenzo[d]oxazol-5-yl)phenyl)ethyl)-3-methoxyazetidine-3-carboxamide] | ++++ (h DPP1 pIC50 higher than 8)
COC1(C(=O)N[C@H](C#N)Cc2ccc(-c3ccc4c(c3)N(C)C(=O)C4)cc2F)CNC1 [Example 49, (S)-N-(1-cyano-2-(2-fluoro-4-(1-methyl-2-oxoindolin-6-yl)phenyl)ethyl)-3-methoxyazetidine-3-carboxamide] | ++++ (h DPP1 pIC50 higher than 8)

same assay, conditions: 0.35 nM human DPP1, 300 μM H-Gly-Arg-AMC, 30 min pre-incubation at 25° C., pH 5.0; read-out: h DPP1 pIC50 (converted)

SMILES | IC50
COC1(C(=O)NC(C#N)Cc2ncc(-c3ccc(C#N)cc3)cc2F)CN(C)C1 (single isomer, unassigned; enantiomer 2) [Example 45, Enantiomer 2 of N-(1-cyano-2-(5-(4-cyanophenyl)-3-fluoropyridin-2-yl)ethyl)-3-methoxy-1-methylazetidine-3-carboxamide] | 1000 to 10000 nM
COC1(C(=O)N[C@H](C#N)Cc2ccc(-c3ccc(C#N)cc3)cc2)CN(C2COC2)C1 [Example 29, (S)-N-(1-cyano-2-(4′-cyano-[1,1′-biphenyl]-4-yl)ethyl)-3-methoxy-1-(oxetan-3-yl)azetidine-3-carboxamide] | 100 to 1000 nM
COC1(C(=O)NC(C#N)Cc2ncc(-c3ccc(C#N)cc3)cc2F)CN(C)C1 (racemic) [Example 43, N-(1-cyano-2-(5-(4-cyanophenyl)-3-fluoropyridin-2-yl)ethyl)-3-methoxy-1-methylazetidine-3-carboxamide] | 10 to 100 nM
CC(C)OC1(C(=O)N[C@H](C#N)Cc2ccc(-c3ccc(C#N)cc3)cc2)CNC1 [Example 26, (S)-N-(1-cyano-2-(4′-cyano-[1,1′-biphenyl]-4-yl)ethyl)-3-isopropoxyazetidine-3-carboxamide] | 1000 to 10000 nM
N#Cc1ccc(-c2ccc(C[C@@H](C#N)NC(=O)C3(Oc4ccccc4)CNC3)cc2)cc1 [Example 21, (S)-N-(1-cyano-2-(4′-cyano-[1,1′-biphenyl]-4-yl)ethyl)-3-phenoxyazetidine-3-carboxamide] | 1000 to 10000 nM
CN1CC(O)(C(=O)N[C@H](C#N)Cc2ccc(-c3ccc(C#N)cc3)cc2)C1 [Example 38, (S)-N-(1-cyano-2-(4′-cyano-[1,1′-biphenyl]-4-yl)ethyl)-3-hydroxy-1-methylazetidine-3-carboxamide] | 10 to 100 nM
COC1(C(=O)N[C@H](C#N)Cc2ccc(-c3ccc(C#N)cc3)cc2F)CNC1 [Example 12, (S)-N-(1-cyano-2-(4′-cyano-3-fluoro-[1,1′-biphenyl]-4-yl)ethyl)-3-methoxyazetidine-3-carboxamide] | 10 to 100 nM
N#Cc1ccc(-c2ccc(C[C@@H](C#N)NC(=O)C3(F)CNC3)cc2)cc1 [Example 2, (S)-N-(1-cyano-2-(4′-cyano-[1,1′-biphenyl]-4-yl)ethyl)-3-fluoroazetidine-3-carboxamide] | 100 to 1000 nM
N#Cc1ccc(-c2ccc(C[C@@H](C#N)NC(=O)C3CNC3)cc2)cc1 [Example 9, (S)-N-(1-cyano-2-(4′-cyano-[1,1′-biphenyl]-4-yl)ethyl)azetidine-3-carboxamide] | 1000 to 10000 nM and 100 to 1000 nM
CC1NCC1C(=O)N[C@H](C#N)Cc1ccc(-c2ccc(C#N)cc2)cc1 (stereo partly drawn) [Example 3, N-((S)-1-cyano-2-(4′-cyano-[1,1′-biphenyl]-4-yl)ethyl)-2-methylazetidine-3-carboxamide] | 1000 to 10000 nM
CSC1(C(=O)N[C@H](C#N)Cc2ccc(-c3ccc(C#N)cc3)cc2)CNC1 [Example 18, (S)-N-(1-cyano-2-(4′-cyano-[1,1′-biphenyl]-4-yl)ethyl)-3-(methylthio)azetidine-3-carboxamide] | 10 to 100 nM
COC1(C(=O)NC(C#N)Cc2ncc(-c3ccc(C#N)cc3)cc2F)CNC1 (stereo not drawn) [Example 42, N-(1-cyano-2-(5-(4-cyanophenyl)-3-fluoropyridin-2-yl)ethyl)-3-methoxyazetidine-3-carboxamide] | 100 to 1000 nM
CCN1CC(OC)(C(=O)N[C@H](C#N)Cc2ccc(-c3ccc(C#N)cc3)cc2)C1 [Example 52, (S)-N-(1-cyano-2-(4′-cyano-[1,1′-biphenyl]-4-yl)ethyl)-1-ethyl-3-methoxyazetidine-3-carboxamide] | 100 to 1000 nM
N#Cc1ccc(-c2ccc(C[C@@H](C#N)NC(=O)C3(CF)CNC3)cc2)cc1 [Example 8, (S)-N-(1-cyano-2-(4′-cyano-[1,1′-biphenyl]-4-yl)ethyl)-3-(fluoromethyl)azetidine-3-carboxamide] | 10 to 100 nM
COC1(C(=O)N[C@H](C#N)Cc2ccc(-c3ccc4c(c3)N(C)C(=O)C4)cc2)CNC1 [Example 22, (S)-N-(1-cyano-2-(4-(1-methyl-2-oxoindolin-6-yl)phenyl)ethyl)-3-methoxyazetidine-3-carboxamide] | 10 to 100 nM
CCC1(C(=O)N[C@H](C#N)Cc2ccc(-c3ccc(C#N)cc3)cc2)CNC1 [Example 5, (S)-N-(1-cyano-2-(4′-cyano-[1,1′-biphenyl]-4-yl)ethyl)-3-ethylazetidine-3-carboxamide] | 100 to 1000 nM
N#Cc1ccc(-c2ccc(C[C@@H](C#N)NC(=O)C3(C(F)F)CNC3)c(F)c2)cc1 [Example 13, (S)-N-(1-cyano-2-(4′-cyano-3-fluoro-[1,1′-biphenyl]-4-yl)ethyl)-3-(difluoromethyl)azetidine-3-carboxamide] | 10 to 100 nM
CCCN1CC(OC)(C(=O)N[C@H](C#N)Cc2ccc(-c3ccc(C#N)cc3)cc2)C1 [Example 46, (S)-N-(1-cyano-2-(4′-cyano-[1,1′-biphenyl]-4-yl)ethyl)-3-methoxy-1-propylazetidine-3-carboxamide] | 1000 to 10000 nM
CN1CC(C(=O)N[C@H](C#N)Cc2ccc(-c3ccc(C#N)cc3)cc2)(C(F)F)C1 [Example 35, (S)-N-(1-cyano-2-(4′-cyano-[1,1′-biphenyl]-4-yl)ethyl)-3-(difluoromethyl)-1-methylazetidine-3-carboxamide] | 100 to 1000 nM
CC1(C)NCC1C(=O)N[C@H](C#N)Cc1ccc(-c2ccc(C#N)cc2)cc1 (stereo partly drawn) [Example 4, N-((S)-1-cyano-2-(4′-cyano-[1,1′-biphenyl]-4-yl)ethyl)-2,2-dimethylazetidine-3-carboxamide] | 1000 to 10000 nM
N#Cc1ccc(-c2ccc(C[C@@H](C#N)NC(=O)C3CN(C4COC4)C3)cc2)cc1 [Example 23, (S)-N-(1-cyano-2-(4′-cyano-[1,1′-biphenyl]-4-yl)ethyl)-1-(oxetan-3-yl)azetidine-3-carboxamide] | 1000 to 10000 nM
COC1(C(=O)N[C@H](C#N)Cc2ccc(-c3ccc(C#N)cc3)cc2)CNC1 [Example 6, (S)-N-(1-cyano-2-(4′-cyano-[1,1′-biphenyl]-4-yl)ethyl)-3-methoxyazetidine-3-carboxamide] | 10 to 100 nM
COC1(C(=O)N[C@H](C#N)Cc2ccc(-c3ccc(C#N)cc3)cc2)CN(C(C)C)C1 [Example 30, (S)-N-(1-cyano-2-(4′-cyano-[1,1′-biphenyl]-4-yl)ethyl)-1-isopropyl-3-methoxyazetidine-3-carboxamide] | 1000 to 10000 nM
COCC1(C(=O)N[C@H](C#N)Cc2ccc(-c3ccc(C#N)cc3)cc2)CNC1 [Example 10, (S)-N-(1-cyano-2-(4′-cyano-[1,1′-biphenyl]-4-yl)ethyl)-3-(methoxymethyl)azetidine-3-carboxamide] | 1000 to 10000 nM
N#Cc1ccc(-c2ccc(C[C@@H](C#N)NC(=O)C3(C(F)F)CNC3)cc2)cc1 [Example 7, (S)-N-(1-cyano-2-(4′-cyano-[1,1′-biphenyl]-4-yl)ethyl)-3-(difluoromethyl)azetidine-3-carboxamide] | 10 to 100 nM
N#Cc1ccc(-c2ccc(C[C@@H](C#N)NC(=O)C3(Cc4ccccc4)CNC3)cc2)cc1 [Example 20, (S)-3-benzyl-N-(1-cyano-2-(4′-cyano-[1,1′-biphenyl]-4-yl)ethyl)azetidine-3-carboxamide] | 1000 to 10000 nM

same assay, conditions: human recombinant DPP1 isolated enzyme assay; read-out: pIC50 on DPP1 (converted)

SMILES | IC50
N#Cc1ccc(-c2ccc(C[C@@H](C#N)NC(=O)C3CNC3)cc2)cc1 [Example 9, (S)-N-(1-cyano-2-(4′-cyano-[1,1′-biphenyl]-4-yl)ethyl)azetidine-3-carboxamide] | 1000 to 10000 nM
